Results taken from ChEMBL document CHEMBL5537186 (J Med Chem, 2024).
Converted amounts (≈) assume the structure as drawn.

What was measured:
[1] = Metabolic stability in human hepatocytes assessed as compound remaining measured after 60 mins; type: ADME, cell-based, Hepatocyte; conditions: read-out: Stability
[2] = Lipophilicity, logD of compound at pH 7.4; type: physicochemical; conditions: buffer
[3] = Kinetic aqueous solubility of compound at pH 7.4; type: physicochemical; conditions: read-out: Kinetic_solubility
[4] = Kinetic aqueous solubility of compound at pH 4.5; type: physicochemical; conditions: read-out: Kinetic_solubility

| SMILES | remaining at 1 h [1] [%] | logD [2] | solubility kinetic [3] [µM] | solubility kinetic [4] [µM] |
| --- | --- | --- | --- | --- |
| Cc1ccc(NC(=O)N2CC[C@@H](CC(F)(F)F)C2)cc1-c1cc(OCC(C)(C)O)nc(N2CCOCC2)c1 | 62 | 3.86 | 15 (≈ 8.05 µg/mL) |  |
| Cc1ccc(NC(=O)N2CC[C@@H](CC(F)(F)F)C2)cc1-c1cc(OCCO)nc(N2CCOCC2)c1 | 19 | 3.73 | 39 (≈ 19.8 µg/mL) | 35 (≈ 17.8 µg/mL) |
| Cc1ccc(NC(=O)N2CC[C@@H](CC(F)(F)F)C2)cc1-c1cc(OC[C@@H](C)O)nc(N2CCOCC2)c1 | 23 | 3.94 | 23 (≈ 12 µg/mL) | 26 (≈ 13.6 µg/mL) |
